{"source": "patent US11248016B2", "about": "“Glycolipids and pharmaceutical compositions thereof for use in therapy” (THE UNIVERSITY OF NOTTINGHAM, priority 2014, dated 2022)", "key": {"[1]": {"tested_on": "firefly luciferase translation reporter", "assay": "Firefly luciferase translation reporter assay", "type": "cell-based, human", "text": "Graphs represent 4 biological repetitions per treatment—2 independent treatments of a compound of Formula II.\nGraphs represent 4 biological repetitions per treatment. […] No difference is observed between Hippuristanol and Hippuristanol plus a compound of Formula II.\nThe degree of translation inhibition is shown to be equivalent to that of a known inhibitor of translation, hippuristanol (FIGS. 3b and 5). Comparative structured 5′UTR firefly luciferase reporter experiments conducted using either hippuristanol or a compound of Formula II show the inhibition of reporter levels is equivalent.\n(§1) Cells were transfected using FuGene 6 (Roche) following the manufacturer's instructions. The activities of firefly and renilla luciferase in lysates prepared from transfected cells were measured using a commercially available Luciferase reporter assay system (Promega) and light emission was measured over a 10 sec interval using a TECAN luminometer. For each experiment described, data was obtained from a minimum of at least 3 biological repetitions per treatment."}, "[2]": {"tested_on": "beta secretases (BACE) 5′UTR", "assay": "5′UTR firefly luciferase reporter assay, BACE", "type": "cell-based, human", "details": "Neuroblastoma cells; FIG. 3d", "method": "(§2) The 5′UTRs of genes which negatively associate with the progression of Alzheimer's disease—amyloid precursor protein (APP) and beta secretases (BACE) are all inhibited by treatment with a compound of Formula II, whereas the equivalent reporter levels of housekeeping genes actin and thioredoxin (TXN) are not inhibited. […] Neuroblastoma cells were transfected 24 hours prior to treatment with a compound of Formula II. After treatment, cells were prepared as described in the materials and methods. Each experiment represents between 6 and 8 biological repetitions.\n(§3) Experiments conducted using Firefly luciferase reporter plasmids containing the 5′ untranslated regions (UTRs) of the genes amyloid precursor protein (APP), thioredoxin (TXN) were conducted with reagents and materials described by Bottley et al, 2010. Experiments conducted using Firefly luciferase reporter plasmids containing the 5′ UTRs of the genes EGFR, BACE1 and Actin were conducted with reagents and materials described by Webb, 2012 (http://etheses.nottingham.ac.uk/2724/). […]\nas §1, with “For each experiment described, data was obtained from a minimum of at least 3 biological repetitions per treatment.” left out"}, "thioredoxin (TXN) 5′UTR": {"tested_on": "thioredoxin (TXN) 5′UTR", "assay": "5′UTR firefly luciferase reporter assay, TXN", "type": "cell-based, human", "details": "Neuroblastoma cells; FIG. 3d", "method": "as §2, §3\nas §1, with “For each experiment described, data was obtained from a minimum of at least 3 biological repetitions per treatment.” left out"}, "[3]": {"tested_on": "Cap-dependent (eIF4A dependant) translation", "assay": "CrPV assay, cap-dependent translation (firefly luciferase)", "type": "cell-based", "details": "20 μM, 3 hours treatment, FIG. 12", "text": "FIG. 12—CrPV assay—Natural molecule targets eIF4A.\nBy using a well characterised luciferase based reporter assay it was further determined that this class of molecule functions as a protein synthesis inhibitor via targeting the helicase eIF4A."}, "breast cancer cells MCF7": {"tested_on": "breast cancer cells MCF7", "assay": "Cell proliferation, MCF7", "type": "cell-based", "details": "96 hours, Formula II only", "method": "Growth of MCF7 cell lines were slowed by the treatment with a compound of Formula II. Experiment represents 6 biological repetitions, Error=S.E.M.\n(§4) Prior to treatment cells were cultured to an appropriate confluency in 96 well tissue culture plates (Fisher). Cells remained either supplemented with fresh media or treated with fresh media containing active or an equivalent volume of DMSO (vehicle control). Where used, Cisplatin™ was diluted to a stock concentration in Dimethylformamide (DMF), then handled as per the manufacturer's instructions. To determine relative cell viability, reagents WST-1 (Roche) or MTT (Sigma) were used as per the manufacturer's instructions and absorbance at 450 nm measured using a Victor plate reader (Perkin Elmer)."}, "[4]": {"tested_on": "SKOV3 ovarian cancer cells", "assay": "Cell proliferation, SKOV3", "type": "cell-based", "details": "96 hours", "method": "Growth of SKOV3 cell lines were slowed by the treatment with a compound of Formula II at higher doses. Experiment represents 6 biological repetitions, Error=S.E.M.\nCisplatin™ resistant SKOV-3 ovarian cancer cells were sensitised to treatment with a compound of Formula II in combination with 2.5 μM Cisplatin™ (p=0.003) (right hand bar in the figure), no effect is observed from treatment with equivalent levels of a compound of Formula II alone (left hand bar in the figure) or Cisplatin™ alone.\nas §4"}, "[5]": {"tested_on": "A549 lung carcinoma cells", "assay": "Cell proliferation, A549 (WST-1 / MTT)", "type": "cell-based", "method": "Cisplatin™ resistant A549 lung cancer cells were sensitised to treatment with a compound of Formula II in combination with 1 μM Cisplatin™—a complete kill is achieved at higher doses of a compound of Formula II.\nCells were treated with a range of doses of active for either 48 or 96 hrs. Each data point is representaive of at least 4 biological repetitions.\nCells were treated with either 2 μM Cisplatin™ alone, c. 1 μg active alone or c. 1 μg active in combination with 2 μM Cisplatin™. A WST-1 cell proliferation assay was performed 96 hrs after treatment. Experiment represents 4 independent biological repetitions.\nA WST-1 cell proliferation assay was performed 72 hrs after treatment. Experiment represents 4 independent biological repetitions.\nCells were treated with either 2 μM or 10 μM Cisplatin™ alone, or 10 μg synthetic molecule Formula II in combination with 2 μM Cisplatin™. A WST-1 cell proliferation assay was performed 72 hrs after treatment. Experiment represents 4 independent biological repetitions. A 5-fold increase in the efficacy of Cisplatin™ is observed when treated in combination with the synthetic Formula II.\nCells were treated with either 2 μM, 5 μM or 10 μM Cisplatin™ alone, 50 μg synthetic acetyl derivative molecule or 30 μg in combination with 2 μM Cisplatin™. A WST-1 cell proliferation assay was performed 72 hrs after treatment. Experiment represents four independent biological repetitions. No effect was detected after treatment with 50 μg synthetic acetyl derivative, however an 8-fold increase in the efficacy of Cisplatin™ is observed when treated in combination with 30 μg synthetic acetyl derivative and […] Cisplatin™.\nFIG. 11—Natural molecule plus cisplatin compared to Hippuristanol plus cisplatin. […] The ratio between anti-proliferative activity to chemo sensitizing activity is also equivalent.\nFIG. 13—Dose curves of compounds 46, 99 and 123. […] Cells were treated with a range of doses of active for 96 hrs. Each data point is representative of at least 4 biological repetitions and error=s.e.m).\nFIG. 14—Cisplatin™ combination experiments—Compounds 46, 99 and 123. […] Cells were treated with a range of doses of active in combination with a range of doses of Cisplatin™ for 96 hrs. Each data point is representative of at least 4 biological repetitions and error=s.e.m).\nas §4"}}}
{"smiles": "CC/C=C\\C/C=C\\C/C=C\\CCCCCCCC(=O)OC[C@H](COC1OC(CO)C(O)C(O)C1O)OC(=O)CCCCCCC/C=C\\C/C=C\\C/C=C\\CC", "note": "(stereo partly drawn) [Formula II, 1,2-dioctadecatienyl-3-O-β-D-galactosyl-sn-glycerol]", "values": [{"measurement": "difference between Hippuristanol and Hippuristanol plus Formula II", "setting": "[1]; Hippuristanol 1 μM, 4 hrs, FIG. 3c", "value": "No difference"}, {"measurement": "inhibition of translation reporter", "setting": "[1]; Hippuristanol (1 μM) plus Formula II, 4 hrs, FIG. 3c", "value": "significant inhibition"}, {"measurement": "inhibition of translation reporter activity", "setting": "[1]; neuroblastoma cells, treated 4 hrs, compound alone, FIG. 3b", "value": "equivalent to treatment with 1 μM Hippuristanol"}, {"measurement": "firefly luciferase reporter activity, BACE 5′UTR", "setting": "[2]", "value": "inhibited"}, {"measurement": "firefly luciferase reporter levels, TXN 5′UTR", "setting": "thioredoxin (TXN) 5′UTR", "value": "not inhibited"}, {"measurement": "cap dependant translation (firefly luciferase signal)", "setting": "[3]", "value": "selectively reduces the translation of the firefly luciferase gene"}, {"measurement": "cap dependant translation (firefly luciferase signal)", "setting": "[3]; listed as Synthetic version of the natural molecule", "value": "inhibited"}, {"measurement": "growth of MCF7 cells", "setting": "breast cancer cells MCF7", "value": "slowed"}, {"measurement": "growth of SKOV3 cells", "setting": "[4]; Formula II only, at higher doses", "value": "slowed"}, {"measurement": "effect on SKOV-3 cells, compound alone", "setting": "[4]; equivalent levels of Formula II alone, FIG. 4f", "value": "no effect"}, {"measurement": "sensitisation of SKOV-3 cells to Cisplatin", "setting": "[4]; in combination with 2.5 μM Cisplatin (p=0.003)", "value": "sensitised"}, {"measurement": "increase in the efficacy of Cisplatin", "setting": "[5]; 10 μg synthetic Formula II plus 2 μM Cisplatin, WST-1, 72 hrs, FIG. 9b", "value": 5, "unit": "fold"}, {"measurement": "kill of A549 cells in combination with Cisplatin", "setting": "[5]; 96 hours, plus 1 μM Cisplatin, higher doses of Formula II", "value": "complete kill"}, {"measurement": "anti-proliferative activity on A549 cells", "setting": "[5]; alone, FIG. 11", "value": "anti-proliferative"}, {"measurement": "efficacy of Cisplatin on A549 cells in combination", "setting": "[5]; c. 1 μg active plus 2 μM Cisplatin, WST-1, 96 hrs, FIG. 7", "value": "significant increase in the efficacy"}, {"measurement": "sensitizing effect to Cisplatin on A549 cells", "setting": "[5]; in combination with Cisplatin (2 μM), FIG. 11", "value": "equivalent to hippuristanol"}, {"measurement": "growth of A549 cells", "setting": "[5]; range of doses, 48 or 96 hrs, WST-1 and MTT, compound purified from natural source, FIG. 6", "value": "inhibits the growth"}, {"measurement": "A549 cell growth, synthetic molecule", "setting": "[5]; synthetic Formula II, WST-1, 72 hrs, FIG. 9a", "value": "inhibited by Formula II in a dose dependent manner"}]}
